Data set [1] has as its target HRV3C (Human rhinovirus 14, UniProt P03303). Put plainly: HRV3C protease assay (duplex, SAMDI-MS). The data set is classed as biochemical, HRV. As to conditions: 30 mins preincubation. The method, boiled down:
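Readout is SAMDI mass spectrometry: biotinylated substrates, products and internal standards were immobilized on neutravidin monolayers and product formation taken as the AUC ratio to internal standard. Reactions ran 30 min at ambient temperature after 30 min compound preincubation, in duplex with 3CLpro. IC50 values came from four-parameter curve fitting.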

For data set [2], the system named is human beta-coronavirus OC43. Kind of data set: microbe, parasite or virus in culture. The data set is classed as cell-based. As to conditions: Betacoronavirus 1, OC43, HeLa, 144 h.
A short description of data set [3]: Cytotoxicity plates without OC43 virus (cell-titer-glo). The data set is classed as cell-based, human. The note with it: human; HeLa cells without OC43 virus, class symbols. The method, boiled down: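 Run as a virus-free counterpart of the OC43 cytopathic-effect assay. Attached HeLa cells received compound dilutions in EMEM with 2% FBS and were kept 6 days at 33 °C. Cell viability was then measured by CellTiter-Glo luminescence.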

Data set [4] relates to SARS-CoV-2-GHB-03021/2020. Put plainly: SARS-CoV-2 Infection Model in Huh7 Cells. The data set is classed as cell-based. The note with it: Severe acute respiratory syndrome coronavirus 2, Huh-7, 96 h, SARS-CoV-2, day 4 p.i., MTS, class symbols.
In data set [5] the test system is SARS-CoV-2-GHB-03021/2020. Put plainly: microbe, parasite or virus in culture. The data set is classed as cell-based. The note with it: Severe acute respiratory syndrome coronavirus 2, Vero C1008, 96 h; read-out: VeroE6 + CP (EC50).
Data set [6] addresses T1, human cathepsin L (Homo sapiens, UniProt P07711).
T1 construct: purchased R&D Systems
Kind of data set: cathepsin L assay. The data set is classed as biochemical. As to conditions: 10 pM human cathepsin L, Z-FR-AMC 2 μM, class symbols. The method, boiled down: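 Reactions began by adding 2 μM (final) Z-FR-AMC substrate to 10 pM human cathepsin L that had been preincubated 30 min with inhibitor. Kinetic AMC fluorescence at 355/460 nm over 30 min at 2-min intervals; four-parameter fitting gave IC50 values.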

Data set [7] is described as follows: in vitro. The note with it: human.
Data set [8] in a line: in vitro. As to conditions: African green monkey, VeroE6 + CP (CC50), Vero E6-eGFP cells with CP-100356, absence of virus, MTS.
For data set [9], the target named is 3CLpro (Severe acute respiratory syndrome coronavirus 2, UniProt P0DTD1). Put plainly: SARS-CoV-2 3CLpro protease assay (duplex, SAMDI-MS). The data set is classed as biochemical. The arrangement: For the duplex assay, 3CLpro and HRV3C was added. As to conditions: 3CLpro, 30 mins preincubation, class symbols; read-out: SARS-Cov-2 IC50.
Where [10] appears, read: HRV3C, class symbols, read-out: HRV IC50.
Setting [11] is: OC43 in HeLa cells, 6 days at 33° C., class symbols, read-out: EC50.
The mark [12] stands for this setting: HRV3C, bound, read-out: HRV IC50.

Where two headings read alike, the source gives them in different places. Some results are limits rather than exact numbers.

Broadly, the IC50 is the concentration that gives 50% inhibition. What is called EC50 is the concentration needed to bring the measured effect to its halfway point. `O=C1NCC[C@H]1C[C@H](NC(=O)[C@@H]1[C@H]2CCC[C@H]2CN1C(=O)c1cc2c(Cl)c(F)cc(F)c2[nH]1)C(=O)CO` [Compound 143, (1S,3aR,6aS)-2-(4-chloro-5,7-difluoro-1H-indole-2-carbonyl)-N-[(2S)-4-hydroxy-3-oxo-1-[(3S)-2-oxopyrrolidin-3-yl]butan-2-yl]-hexahydro-1H-cyclopenta[c]pyrrole-1-carboxamide]: the IC50 is over 10 µM in [1] (HRV IC50, HRV3C, bound); at least 10 µM in [6]; 0.02 to 0.2 µM in data set [9]. Besides, the EC50 is 0.1 to 1 µM in data set [2], under 1 µM in data set [4] and under 1 µM in data set [5]. In [3], this compound showed a CC50 at 6 days of over 10 µM. Also, the CC50 in data set [7] was over 10 µM; in [8] (numeric bounds) it was over 50 µM.

For `O=C1NCC[C@H]1C[C@H](NC(=O)[C@@H]1[C@H]2CCC[C@H]2CN1C(=O)c1ccc(-c2ccccc2)[nH]1)C(=O)CO` [Compound 144, (1S,3aR,6aS)—N-[(2S)-4-hydroxy-3-oxo-1-[(3S)-2-oxopyrrolidin-3-yl]butan-2-yl]-2-(5-phenyl-1H-pyrrole-2-carbonyl)-hexahydro-1H-cyclopenta[c]pyrrole-1-carboxamide], the IC50 in [1] (setting [10]) was 2 to 20 µM; in data set [6], at least 10 µM; in data set [9] it was 0.02 to 0.2 µM. Moreover, the concentration for a half-maximal effect (EC50) in data set [2] (setting [11]) is 0.1 to 1 µM; in [4], 1 to 10 µM; in data set [5] it was under 1 µM. In addition, the CC50 at 6 days in data set [3] is over 10 µM. In addition, the CC50 in [7] was over 10 µM; in [8] (numeric bounds) it was over 50 µM.

Turning to `O=C(NC1CC1)C(=O)[C@H](C[C@@H]1CCNC1=O)NC(=O)[C@@H]1CC2(CCN1C(=O)c1cc3c(Cl)cccc3[nH]1)CC2` [Compound 145], the results for the IC50 in data set [1] (setting [10]), in data set [6] and in [9] were 0.02 to 0.2 µM, 0.1 to 1 µM and under 0.02 µM, respectively. Also, the EC50 fell in the range of 1 to 10 µM in [2] (setting [11]), 10 to 100 µM in data set [4] and 10 to 100 µM in data set [5]. For the same compound, in data set [3], the CC50 at 6 days was over 10 µM. Besides, the CC50 in [7] and in [8] (numeric bounds) was over 50 µM throughout.

In the case of `Cc1ccc2[nH]c(C(=O)N3CCC4(CC4)C[C@H]3C(=O)N[C@@H](C[C@@H]3CCNC3=O)C(=O)C(=O)NC3CC3)cc2c1` [Compound 146], the IC50 is 2 to 20 µM in [1] (setting [10]), 1 to 10 µM in [6] and under 0.02 µM in [9]. The figures for the EC50 in [2] (setting [11]), in [4] and in [5] were 0.1 to 1 µM, 1 to 10 µM and 1 to 10 µM, respectively. The same compound yielded a CC50 at 6 days in data set [3] of over 10 µM. The figures for the CC50 in data set [7] and in [8] (numeric bounds) were over 10 µM and over 50 µM, respectively.

For the compound `O=C(NC1CC1)C(=O)[C@H](C[C@@H]1CCNC1=O)NC(=O)[C@@H]1CC2(CCN1C(=O)c1cc3cc(F)ccc3[nH]1)CC2` [Compound 147], the IC50 in [1] (setting [10]) was 2 to 20 µM; in [6], at least 10 µM; in data set [9], under 0.02 µM. The EC50 in data set [2] (setting [11]) lay in the range of 0.1 to 1 µM; in [4], 10 to 100 µM; in data set [5], 10 to 100 µM. Also, the CC50 at 6 days in [3] is over 10 µM. The CC50 in [7] and in data set [8] (numeric bounds) was over 50 µM throughout.

For `O=C(NC1CC1)C(=O)[C@H](C[C@@H]1CCNC1=O)NC(=O)[C@@H]1[C@H]2CCC[C@H]2CN1C(=O)c1cc2c(Cl)cc(Cl)cc2[nH]1` [Compound 148], the IC50 was 0.2 to 2 µM in data set [1] (setting [10]), at least 10 µM in [6] and 0.02 to 0.2 µM in data set [9]. The EC50 in data set [2] (setting [11]) was 0.1 to 1 µM; in data set [4], under 1 µM; in data set [5], under 1 µM. The compound also gave a CC50 at 6 days in data set [3] of over 10 µM. For the same compound, the CC50 in data set [7] was over 10 µM; in data set [8] (numeric bounds) it was over 50 µM.

Consider `CC(C)COCCNC(=O)C(=O)[C@H](C[C@@H]1CCNC1=O)NC(=O)[C@@H]1[C@H]2CCC[C@H]2CN1C(=O)c1cc2c(Cl)cc(Cl)cc2[nH]1` [Compound 149, (1S,3aR,6aS)-2-(4,6-dichloro-1H-indole-2-carbonyl)-N—((S)-4-((2-isobutoxyethyl)amino)-3,4-dioxo-1-((S)-2-oxopyrrolidin-3-yl)butan-2-yl)octahydrocyclopenta[c]pyrrole-1-carboxamide], for which the IC50 was 2 to 20 µM in data set [1] (HRV IC50, HRV3C, class symbols); 1 to 10 µM in data set [6]; 0.02 to 0.2 µM in data set [9]. In addition, the results for the EC50 in data set [2], in data set [4] and in [5] were 0.1 to 1 µM, under 1 µM and under 1 µM, respectively. Also, the CC50 at 6 days in data set [3] is over 10 µM. In addition, the CC50 in data set [7] was 1 to 10 µM; in [8] (class symbols), over 10 µM.

`COc1cccc2[nH]c(C(=O)N3C[C@@H]4CCC[C@@H]4[C@H]3C(=O)N[C@@H](C[C@@H]3CCNC3=O)C(=O)CO)c(F)c12` [Compound 151, (1S,3aR,6aS)-2-(3-fluoro-4-methoxy-1H-indole-2-carbonyl)-N—((S)-4-hydroxy-3-oxo-1-((S)-2-oxopyrrolidin-3-yl)butan-2-yl)octahydrocyclopenta[c]pyrrole-1-carboxamide]: the IC50 in data set [1] (HRV IC50, HRV3C, bound) is over 10 µM; in data set [6] it was at least 10 µM; in data set [9] it was 0.02 to 0.2 µM. Further, the values for the EC50 in [2], in data set [4] and in [5] were 1 to 10 µM, 1 to 10 µM and 10 to 100 µM, respectively. The compound further yielded a CC50 at 6 days in [3] of over 10 µM. Besides, the CC50 in data set [7] and in [8] (numeric bounds) was over 50 µM each time.

In the case of `CC(F)(F)c1cccc2[nH]c(C(=O)N3C[C@@H]4CCC[C@@H]4[C@H]3C(=O)N[C@@H](C[C@@H]3CCNC3=O)C(=O)CO)cc12` [Compound 152, (1S,3aR,6aS)-2-[4-(1,1-difluoroethyl)-1H-indole-2-carbonyl]-N-[(2S)-4-hydroxy-3-oxo-1-[(3S)-2-oxopyrrolidin-3-yl]butan-2-yl]-hexahydro-1H-cyclopenta[c]pyrrole-1-carboxamide], the IC50 is over 10 µM in [1] (setting [12]), at least 10 µM in [6] and 0.02 to 0.2 µM in data set [9]. Besides, the EC50 lay in the range of 1 to 10 µM in data set [2] (setting [11]), 10 to 100 µM in data set [4] and 10 to 100 µM in data set [5]. For the same compound, in data set [3], the CC50 at 6 days is over 10 µM. The CC50 in data set [7] and in [8] (numeric bounds) was over 50 µM each time.

Consider `CNc1cccc2[nH]c(C(=O)N3C[C@@H]4CCC[C@@H]4[C@H]3C(=O)N[C@@H](C[C@@H]3CCNC3=O)C(=O)CO)cc12` [Compound 153, (1S,3aR,6aS)—N-[(2S)-4-hydroxy-3-oxo-1-[(3S)-2-oxopyrrolidin-3-yl]butan-2-yl]-2-[4-(methylamino)-1H-indole-2-carbonyl]-hexahydro-1H-cyclopenta[c]pyrrole-1-carboxamide], for which the concentration for half-maximal inhibition (IC50) was over 10 µM in data set [1] (setting [12]), at least 10 µM in data set [6] and 0.02 to 0.2 µM in [9]. In addition, the EC50 in data set [2] (setting [11]) fell in the range of 1 to 10 µM; in [4], 10 to 100 µM; in data set [5] it was 10 to 100 µM. Besides, the CC50 at 6 days in data set [3] was over 10 µM. The CC50 in [7] is over 10 µM; in data set [8] (numeric bounds) it was over 50 µM.

As for `CSc1cccc2[nH]c(C(=O)N3C[C@@H]4CCC[C@@H]4[C@H]3C(=O)N[C@@H](C[C@@H]3CCNC3=O)C(=O)CO)cc12` [Compound 154, (1S,3aR,6aS)—N—((S)-4-hydroxy-3-oxo-1-((S)-2-oxopyrrolidin-3-yl)butan-2-yl)-2-(4-(methylthio)-1H-indole-2-carbonyl)octahydrocyclopenta[c]pyrrole-1-carboxamide], the IC50 was 2 to 20 µM in [1] (setting [10]), at least 10 µM in data set [6] and under 0.02 µM in data set [9]. For the same compound, the values for the EC50 in [2] (setting [11]), in data set [4] and in [5] were 0.1 to 1 µM, under 1 µM and 1 to 10 µM, respectively. The compound also showed a CC50 at 6 days in [3] of over 10 µM. In addition, the CC50 in data set [7] and in data set [8] (numeric bounds) was over 50 µM each time.

The values above are taken from patent US11952365B2, “Anti-viral compounds” (Aligos Therapeutics, Inc., priority 2020, dated 2024).
